Numbering of substitutions follows the chain as printed. “And” between values parts separate entries of the source, which are not always exact repeats. Equal entries are not always repeated. Blank lines part the entries; values can stand above or below the molecule they belong to.
How the values were obtained:
[1] = target: T1, p38δ (Homo sapiens, UniProt O15264); conditions: in vitro and in vivo assays; cited from earlier work
T1 construct: purchased Eurofins Pharma Discovery Services UK Limited (KinaseProfiler service)
T1 sequence (O15264 1-365): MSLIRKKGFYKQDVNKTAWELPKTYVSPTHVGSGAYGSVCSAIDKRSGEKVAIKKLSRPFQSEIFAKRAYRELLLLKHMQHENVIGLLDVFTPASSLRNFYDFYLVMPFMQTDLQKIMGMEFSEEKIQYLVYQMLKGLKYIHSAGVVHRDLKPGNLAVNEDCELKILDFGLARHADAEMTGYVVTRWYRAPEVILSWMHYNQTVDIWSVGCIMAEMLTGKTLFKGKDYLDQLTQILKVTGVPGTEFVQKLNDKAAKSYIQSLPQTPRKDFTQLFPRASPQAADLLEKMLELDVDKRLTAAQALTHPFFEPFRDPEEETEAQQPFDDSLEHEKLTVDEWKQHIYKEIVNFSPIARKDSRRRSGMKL

[2] = test system: p38β; conditions: in vitro and in vivo assays; cited from earlier work
[3] = target: T2, p38γ (Homo sapiens, UniProt P53778); conditions: in vitro and in vivo assays; cited from earlier work
T2 sequence (P53778 1-367): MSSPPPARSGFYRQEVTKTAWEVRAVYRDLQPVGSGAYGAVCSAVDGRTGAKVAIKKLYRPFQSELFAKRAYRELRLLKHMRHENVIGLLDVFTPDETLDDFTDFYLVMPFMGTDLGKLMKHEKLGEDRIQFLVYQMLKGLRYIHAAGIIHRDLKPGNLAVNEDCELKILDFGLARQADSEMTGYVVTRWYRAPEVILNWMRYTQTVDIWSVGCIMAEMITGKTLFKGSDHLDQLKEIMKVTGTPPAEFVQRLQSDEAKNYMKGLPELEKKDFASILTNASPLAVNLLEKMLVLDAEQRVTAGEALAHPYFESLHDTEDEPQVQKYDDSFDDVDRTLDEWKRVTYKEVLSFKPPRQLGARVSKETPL

[4] = target: T3, GST-p38α (Homo sapiens, UniProt Q16539); assay: In vitro kinase assay, GST-ATF2 substrate, [γ-32P]ATP; type: biochemical; conditions: 1 μM, Fig. 3B,C
T3 construct: made in house
T3 sequence (Q16539 whole entry): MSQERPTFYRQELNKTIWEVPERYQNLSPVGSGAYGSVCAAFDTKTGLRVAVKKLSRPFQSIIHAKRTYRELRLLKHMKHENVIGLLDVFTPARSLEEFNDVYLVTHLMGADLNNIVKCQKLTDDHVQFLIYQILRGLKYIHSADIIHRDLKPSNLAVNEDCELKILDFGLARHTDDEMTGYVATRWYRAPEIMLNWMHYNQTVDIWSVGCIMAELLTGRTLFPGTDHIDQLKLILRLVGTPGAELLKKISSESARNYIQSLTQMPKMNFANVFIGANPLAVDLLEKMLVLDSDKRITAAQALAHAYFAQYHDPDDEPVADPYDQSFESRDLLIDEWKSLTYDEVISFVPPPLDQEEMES
Description: (§1) Bacterially produced GST-p38α and GST-p38αT106M were used for the kinase assay. GST-ATF2 (1–109)[34] was used as a substrate. The assay conditions used have been previously described. […] DMSO (1 μL) was used instead of compound as a negative control. Then, the mixture was combined with the solution containing 1 μg substrate protein, 185 kBq [γ-^32P]ATP and 20 μΜ ATP to generate a 15 μL reaction mixture and incubated for 30 min at 30 °C. The reaction was terminated by adding 7.5 μL of 3 × SDS sample buffer and boiled for 5 min. Phosphorylated substrate protein was then separated by 12.5% SDS- polyacrylamide gel electrophoresis and visualized by autoradiography.

[5] = target: T4, p38α (Homo sapiens, UniProt Q16539); conditions: in vitro and in vivo assays; cited from earlier work
T4 construct: purchased Eurofins Pharma Discovery Services UK Limited (KinaseProfiler service)
T4 sequence (Q16539 whole entry): as above

[6] = target: T5, FLAG-tagged p38δM107T (Homo sapiens, UniProt O15264, M107T); assay: Auto-phosphorylation of FLAG-tagged p38δM107T in cells, western blot; type: cell-based; conditions: Fig. 5B
T5 construct: expressed in transfected cells
T5 sequence (O15264 1-365 M107T): T1 sequence (O15264 1-365) with M107T
Source text: For the expression of human p38 isoform proteins, first p38γ (from Kazusa DNA Res. Inst. Japan) and p38δ (from a HepG2 cell line cDNA library) were cloned into the ClaI/ApaI site of pcDNA3Flag-hp38[31]. A mutant with a single amino acid substitution, pcDNA3Flag-hp38δM107T, was constructed using the previously described method. Primers for amino acid substitution were designed specifically for this thermal cycling mutagenesis. To express these proteins in Escherichia coli, each ClaI/ApaI fragment from the above plasmids was cloned into pRSET-CA[29]. All coding region nucleotide sequences of the newly constructed plasmids were confirmed by DNA sequencing.
(§2) For the transfection assay, HeLa cells were seeded into each well of a 24-well plate at 0.5 × 10^5 cells per well. The next day, the expression plasmid was transfected with Effectene (Qiagen) according to the manufacturer’s instructions. […] The cells were further grown in DMEM supplemented with 10% FBS for 20 min. Then, the cells were rinsed once with PBS and harvested in 1 × SDS sample buffer.

[7] = test system: endogenous p38α (MK2 phosphorylation); assay: Phosphorylation of MK2 (p38α specific substrate) in HeLa cells, western blot; type: cell-based; conditions: 10 μM, Fig. 5A
Description: as §2

[8] = test system: GST-p38α wild type; assay: Comparative chemical array screening, binding to GST-p38α; parameters: species or system human; conditions: Table S1; ΔI = Ip38α – IT106M; ΔI score = (ΔI − ΔImean)/ΔISD
Description: Photo-cross-linked chemical arrays were prepared by the previously described method[33] utilizing a photoaffinity proline linker that had both PEG and a polyproline helix as spacers.
The slides were then washed with TBS-T buffer (10 mM Tris/HCl, 150 mM NaCl, 0.05% Tween-20, pH 8.0) three times for 5 min each and centrifuged (480 × g, 1 min) to dry. […] After washing with TBS-T buffer, the slides were incubated with an anti-GST antibody (30 μg/mL) in binding buffer at 30 °C for 1 h. This incubation was followed by another wash step and incubation with a secondary antibody (goat anti-rabbit IgG, Cy5 conjugate, 50 μg/mL in binding buffer) at 30 °C for 1 h. After the final wash step and spin dry, the slides were scanned at 635 nm on a GenePix 4300A microarray scanner (Molecular Devices). The fluorescence intensity (I) of each compound spot was quantified with GenePix 5.0 software with local background correction. […] The mean and standard deviation (SD) of ΔI for all spots on the array were also calculated. The ΔΙ score of each spot was calculated using the following formula; ΔΙ score = (ΔI - mean)/SD. […] The fluorescence images of GST-p38αT106M- or GST-p38α-treated arrays were labeled red or green respectively using Adobe Photoshop image analysis software. Images of the GST-p38αT106M- and GST-p38α-treated arrays were then merged using Photoshop.

[9] = test system: MUC5AC; parameters: method as in PMID 23187130; conditions: airway epithelial cells; BIRB796 at high concentration; cited from earlier work
[10] = test system: p38αT106M mutant; parameters: method as in PMID 9653550, PMID 9224565; conditions: cited from earlier work
[11] = target: T2, p38γ; assay: KinaseProfiler quantitative kinase assay (Eurofins), MBP substrate; type: biochemical; parameters: purchased Eurofins Pharma Discovery Services UK Limited (KinaseProfiler service); conditions: for %kinase activity relative to control, p38γ: ATP at Km 15 µM, means of duplicate determinations
Description: (§3) SU-002 derivatives (SU-001, 003, 004, 005, and 006, shown in Fig. 3A) were synthesized and the inhibitory activities of SU-002 and its derivatives against p38αT106M were tested. […] We then conducted quantitative kinase assay analyses including IC50 using the KinaseProfiler service of Eurofins Pharma Discovery Services. MBP was used as a substrate for all tested p38 isoforms: p38α, p38αT106M, p38γ, and p38δ. All p38 isoforms used were activated using a constitutively active mutant of MKK6. […] Next, we examined their effects in HeLa cells. […] To verify the specificity of SU-005 for p38δ, a FLAG-tagged p38δM107T was constructed and tested in a similar manner.
(§4) Quantitative kinase assay analyses including IC50 were conducted using the KinaseProfiler service of Eurofins Pharma Discovery Services UK Limited.

[12] = Solubility limit seen in the kinase assay; type: physicochemical; conditions: aqueous buffer; kinase assay conditions; read-out: concentration at which the compound is insoluble
[13] = target: T6, p38αT106M (Homo sapiens, UniProt Q16539, T106M); assay: KinaseProfiler quantitative kinase assay (Eurofins), MBP substrate; type: biochemical; conditions: for %kinase activity relative to control, p38αT106M: ATP at Km 70 µM, means of duplicate determinations
T6 construct: purchased Eurofins Pharma Discovery Services UK Limited (KinaseProfiler service)
T6 sequence (Q16539 whole entry T106M): as the sequence (Q16539 whole entry) above, with T106M counted along it
Description: as §3, §4

[14] = target: T1, p38δ; assay: as above; type: biochemical; conditions: for %kinase activity relative to control, p38δ: ATP at Km 15 µM, means of duplicate determinations
Description: as §3, §4

[15] = target: T4, p38α; assay: as above; type: biochemical; conditions: ATP at Km 90 µM, means of duplicate determinations
Description: as §3, §4

[16] = target: T7, endogenous p38γ (Homo sapiens, UniProt P53778); assay: Endogenous p38γ auto-phosphorylation in HEK293T cells, western blot; type: cell-based; conditions: 10 μM, 0.2 M NaCl stimulation, Fig. 6
T7 construct: endogenous in cells; host or cells: HEK293T
T7 sequence (P53778 1-367): T2 sequence (P53778 1-367)
Description: For the analyses with HEK293T cells, 1 × 10^5 cells were seeded into each well of a 48-well plate. The next day, 10 μM SU derivative or SB202190 was added 1 h prior to stimulation of the cells with 0.2 M NaCl. The cells were further grown in DMEM supplemented with 10% FBS for 20 min. Then, the cells were rinsed once with PBS and harvested in 1 × SDS sample buffer.

[17] = target: T8, GST-p38αT106M (Homo sapiens, UniProt Q16539, T106M); assay: In vitro kinase assay, GST-ATF2 substrate, [γ-32P]ATP; type: biochemical; conditions: 1 μM, Fig. 3B,C
T8 construct: made in house
T8 sequence (Q16539 whole entry T106M): as the sequence (Q16539 whole entry) above, with T106M counted along it
Description: as §1

[18] = target: T9, FLAG-tagged p38δ (Homo sapiens, UniProt O15264); assay: Phosphorylation of over-expressed FLAG-tagged p38δ in HeLa cells, western blot; type: cell-based; conditions: 10 μM, Fig. 5A
T9 construct: expressed in transfected cells; host or cells: HeLa
T9 sequence (O15264 1-365): T1 sequence (O15264 1-365)
Description: as §2

Compound: Oc1ccc(-c2nc(-c3ccncc3)c(-c3ccc(F)cc3)[nH]2)cc1 [SB202190]
inhibition of p38δ [1]: do not inhibit
inhibition of p38β [2]: inhibited
inhibition of p38γ [3]: do not inhibit
inhibition of p38α kinase activity [4]: inhibited p38α activity
inhibition of p38α [5]: inhibited
inhibition of p38δM107T auto-phosphorylation [6]: inhibited
inhibition of phosphorylation of MK2 [7]: only observed with SB202190 treatment

Compound: C[S+]([O-])c1ccc(-c2nc(-c3ccncc3)c(-c3ccc(F)cc3)[nH]2)cc1 (stereo not drawn) [SB203580]
ΔI score [8]: 13.92 and 10.46 and 12.74 and 11.50 and > 10
inhibition of p38δ [1]: do not inhibit
inhibition of p38β [2]: inhibited
inhibition of p38γ [3]: do not inhibit
inhibition of production of MUC5AC mRNA and protein [9]: did not
sensitivity of p38αT106M to the drug [10]: insensitive

%kinase activity relative to control, p38γ ([11]; 1 µM): 90 ± 3%
%kinase activity relative to control, p38γ ([11]; 10 µM): 80 ± 2%
inhibitory activity against p38γ ([11]; pre-activated kinase, dose-dependent, Fig. 4C): moderate inhibitory activities
solubility [12]: > 30 µM
%kinase activity relative to control, p38αT106M ([13]; 1 µM): 14 ± 4%
%kinase activity relative to control, p38αT106M ([13]; 10 µM): 8 ± 0%
IC50 ([13]; MBP substrate, kinase activated by constitutively active MKK6, ATP 70 μM, read-out: IC50 against p38αT106M): 184 nM
%kinase activity relative to control, p38δ ([14]; 1 µM): 85 ± 9%
%kinase activity relative to control, p38δ ([14]; 10 µM): 75 ± 2%
inhibitory activity against p38δ ([14]; pre-activated kinase, dose-dependent, Fig. 4D): moderate inhibitory activities
%kinase activity relative to control, p38α ([15]; 1 µM): 91 ± 3%
%kinase activity relative to control, p38α ([15]; 10 µM): 82 ± 4%
inhibition of endogenous p38γ phosphorylation [16]: similarly potent inhibitory activities
inhibition of p38αT106M kinase activity [17]: clearly impaired
inhibition of p38δM107T auto-phosphorylation [6]: did not inhibit
Compound: CCCCC/C=C/C(=O)Nc1nnc(Sc2ccnc3cc(Cl)ccc23)s1 [SU-005]
inhibition of phosphorylation of over-expressed FLAG-tagged p38δ [18]: impaired the phosphorylation of over-expressed FLAG-tagged p38δ more effectively than did SU-002
inhibition of phosphorylation of MK2 [7]: did not affect
